Activity calls are given as the source filed them.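 How the source made its calls: active means compounds cutting labeled signal peptide binding to staph cells by half or more; inactive means the rest.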
System: S. aureus cells, FITC-AIP binding, flow cytometry
Assay: displacement of labeled AIP from bacterial receptors – strains RN6390, NM300, flow cytometry, mechanism study for S. aureus quorum sensing inhibitors, late-stage follow-up (AID 1500)
Details: stronger effect = higher value

Cc1c(Cl)cccc1Nc1ccccc1C(=O)O
inhibition (at 30 µM): 67% | inhibition (strain RN6390, at 30 µM): 60%

CC1CCCN(C(C(=O)Nc2ccc3c(c2)OCO3)c2ccccc2)C1 (stereo unspecified)
inhibition (at 12 µM): 20% (inactive)

CCc1oc2ccccc2c1C(=O)c1cc(Br)c(O)c(Br)c1
inhibition (at 6 µM): 65% | inhibition (strain RN6390, at 6 µM): 69%

CC1CCCN(C(C(=O)Nc2ccc3c(c2)OCCO3)c2ccccc2)C1 (stereo unspecified)
inhibition (at 12 µM): 26% (inactive)

Source: PubChem BioAssay AID1500 (NMMLSC, 2009)
